Test results from publication PMC12113998, “Exploring Multivalent Architectures for Binding and Stabilization of N-Acetylgalactosamine 6-Sulfatase” (Molecules, 2025).
Where “and” joins values, the source holds several entries; their conditions need not be identical. Equal entries are not always repeated. Where two headings read alike, the source gives them in different places. Marks after values point to notes of the source that are not given here. One block for each molecule: values may come before it.

Columns and labels:
[1] = 1H-NMR stability study of the acetal in D2O at pH* 4.3, 37 °C; assay type: physicochemical; settings: after 19 h
Procedure: The presence of pH-sensitive acetal groups in β-D-glucose-derived dendrimers led us to question whether these compounds would remain stable under the biological conditions of the screening assay. To assess their stability under the experimental conditions, we synthesized 2-(nonyloxy)tetrahydro-2H-pyran acetal following the literature procedure as a control and conducted an NMR stability study. The NMR sample was prepared in D2O at pH* 4.3, where pH* refers to the pH measured in a D2O solution using an H2O-calibrated pH meter. […] The hydrolysis of the 2-(nonyloxy)tetrahydro-2H-pyran acetal yielded nonan-1-ol and 5-hydroxypentanal. The compound stability at pH* 4.3, assessed by ¹H-NMR experiments, is reported in the Supporting Information.

[2] = biological target: T1, N-acetylgalactosamine-6-sulfatase (GALNS) (Homo sapiens, UniProt P34059); test: GALNS inhibition in leukocyte homogenate from healthy donors (4-methylumbelliferyl-β-galactoside-6-sulfate substrate, fluorescence); assay type: biochemical; settings: for inhibition at 1000 µM: pH 4.3, 1 mM inhibitor
T1 construct: Isolated leukocytes were disrupted by sonication; from tissue; host or cells: human leukocytes from healthy donors (sonicated homogenate)
T1 sequence (P34059 27-522): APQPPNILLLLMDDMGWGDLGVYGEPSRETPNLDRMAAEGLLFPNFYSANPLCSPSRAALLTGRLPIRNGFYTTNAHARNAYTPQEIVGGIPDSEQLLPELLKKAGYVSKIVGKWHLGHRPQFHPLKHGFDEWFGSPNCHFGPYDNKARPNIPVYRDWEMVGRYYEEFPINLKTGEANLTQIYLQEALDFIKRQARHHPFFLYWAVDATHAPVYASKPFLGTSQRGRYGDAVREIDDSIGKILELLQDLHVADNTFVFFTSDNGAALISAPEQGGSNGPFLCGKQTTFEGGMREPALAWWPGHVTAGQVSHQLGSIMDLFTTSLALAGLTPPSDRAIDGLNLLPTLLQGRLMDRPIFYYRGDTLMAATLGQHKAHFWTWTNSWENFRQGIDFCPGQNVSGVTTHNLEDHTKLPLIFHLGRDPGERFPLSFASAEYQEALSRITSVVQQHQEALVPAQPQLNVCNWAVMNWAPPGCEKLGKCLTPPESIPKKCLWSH
Procedure: A preliminary biological screening of the newly synthesized multivalent compounds at 1 mM inhibitor concentration was performed against GALNS in leukocytes isolated from healthy donors. Enzymatic assays were performed in triplicate by incubating leukocyte homogenate, compound, and substrate (4-methylumbelliferyl-β-galactoside-6-sulfate.Na) in Na-acetate/acetic acid buffer (pH 4.3) at 37 °C for 17 h, followed by the addition of β-galactosidase from Aspergillus oryzae and further incubation to release 4-methylumbelliferone. The fluorescence was measured, and the inhibition percentages were calculated relative to the control. The results are summarized in Table 1, Table 2, Table 3 and Table 4, along with new inhibition data toward GALNS of multivalent inhibitors whose synthesis was reported previously by our group (23, 26, 30, 51, 52–54). For compounds showing poor to negligible inhibitory activity, only the GALNS inhibition percentage at 1 mM was reported.
Enzymatic assays towards human GALNS in leukocytes isolated from healthy donors.
All experiments on biological materials were performed in accordance with the ethical standards of the institutional research committee and with the 1964 Helsinki Declaration and its later amendments. In keeping with ethical guidelines, all blood and cell samples were obtained for storage and analysed only after written informed consent of the patients (and/or their family members) was obtained, using a form approved by the local Ethics Committee (Assigned code: Lysolate “Late -onset Lysosomal Storage Disorders (LSDs) in the differential diagnosis of neurodegenerative diseases: development of new diagnostic procedures and focus on potential pharmacological chaperones (PCs).” Project ID code: 16774_bio, 5 May 2020, Comitato Etico Regionale per la Sperimentazione Clinica della Regione Toscana, Area Vasta Centro, Florence, Italy). Control and patient samples were anonymized and used only for research purposes.
A preliminary biological screening of compounds at 1 mM was performed towards GALNS in leukocytes isolated from healthy donors (controls). Isolated leukocytes were disrupted by sonication, and a micro BCA protein assay kit (Sigma–Aldrich) was used to determine the total protein amount for the enzymatic assay, according to the manufacturer instructions. Enzyme activity was measured by setting the reaction in 0.2 mL tubes and performing the experiments in triplicates as follows. Compound solution (3 µL), 4.29 μg/μL leukocyte homogenate 1:5 (7 μL) and 20 µL of 4-methylumbelliferyl-β-galactoside-6-sulfate.Na substrate solution (6.66mM) in Na-Acetate/acetic acid buffer (0.1 M/0.1 M, pH 4.3) containing 0.1 M NaCl, 0.02% (w/v) NaN3 and 5 mM Pb-acetate were incubated for 17 h at 37 °C. After step one, the tubes were placed on an ice cooler and the reaction was stopped by addition of 5 µL of Na-phosphate buffer (0.9 M, pH 4.3) containing 0.02 % (w/v) of NaN3 and by efficient mixing with vortex. Then, 10 µL of β-galactosidase from Aspergillus oryzae (β-Gal-A-10U) were added to each sample and samples were incubated for 2 h at 37°C. At the end of this period the tubes were placed on an ice cooler and the samples were transferred in a cooled flat –bottomed 96 well plate and the reaction was immediately stopped with 2 00 µL of NaHCO3/Na2CO3 buffer (0.5 M/0.5 M pH 10.7) containing 0.025% (w/v) of Triton X -100. Fluorescence was measured in a SpectraMax M2 microplate reader (Molecular-Devices) using a 365 nm excitation wavelength and a 435 nm emission wavelength. Percentage of GALNS inhibition was given with respect to the control (without compound).
Experiments were performed in triplicate, and the mean ± S. D. was calculated.
Figure S52. GALNS activity in the absence Figure S53. GALNS activity in the absence (Ctrl) and presence of scaffold 12 at a 1 mM (Ctrl) and presence of the new multivalent […]
The corresponding calculated inhibition of the main text) at a 1 mM concentration in […]

[3] = biological target: T1, N-acetylgalactosamine-6-sulfatase (GALNS); design: method as in doi:10.1039/C6RA15806D; settings: cited from earlier work
GALNS = settings: cited from earlier work
rhGALNS = system: rhGALNS; design: method as in PMID 31905715; settings: preliminary studies; cited from earlier work
[4] = calculated considering 35 as the monovalent reference compound
[5] = human leukocyte extracts, pH 4.3, 37 °C, 17 h

SMILES: CCCCCCCCCOC1CCCCO1 (centres unmarked) [2-(nonyloxy)tetrahydro-2H-pyran acetal, 2-(nonyloxy)tetrahydro-2H-pyran]
stability at pH* 4.3 by 1H-NMR [1]: remained stable

SMILES: O=C(NC(COCc1cn(CCCCCCN2C[C@H](O)[C@H](O)[C@H]2CO)nn1)(COCc1cn(CCCCCCN2C[C@H](O)[C@H](O)[C@H]2CO)nn1)COCc1cn(CCCCCCN2C[C@H](O)[C@H](O)[C@H]2CO)nn1)c1cc(C(=O)NC(COCc2cn(CCCCCCN3C[C@H](O)[C@H](O)[C@H]3CO)nn2)(COCc2cn(CCCCCCN3C[C@H](O)[C@H](O)[C@H]3CO)nn2)COCc2cn(CCCCCCN3C[C@H](O)[C@H](O)[C@H]3CO)nn2)cc(C(=O)NC(COCc2cn(CCCCCCN3C[C@H](O)[C@H](O)[C@H]3CO)nn2)(COCc2cn(CCCCCCN3C[C@H](O)[C@H](O)[C@H]3CO)nn2)COCc2cn(CCCCCCN3C[C@H](O)[C@H](O)[C@H]3CO)nn2)c1 [Compound 2]
rp (relative potency) [2, 4]: 59
rp/n (multivalent effect) [2, 4]: 6.5 ^[d]
rp (relative potency) ([2]; calculated with respect to the scaffold 38): 0.8
% Inhibition (1 mM) ([3]; 1 mM inhibitor, human leukocyte extracts): 85 ^[a] %
IC50 ([3]; human leukocyte extracts): 85 ± 8 µM
rp/n ([3]; positive MVE as previously reported): 6.5 and 6.5–9.2

SMILES: OC[C@@H](C[C@H]1N[C@H](CO)[C@@H](O)[C@@H]1O)OC[C@H](O)C[C@H]1N[C@H](CO)[C@@H](O)[C@@H]1O [Compound 3]
IC50 (GALNS): 0.3 µM

SMILES: C#CCOCC(COCC#C)(COCC#C)NC(=O)c1cc(C(=O)NC(COCC#C)(COCC#C)COCC#C)cc(C(=O)NC(COCC#C)(COCC#C)COCC#C)c1 [Compound 12]
inhibition at 1000 µM [2, 5]: 25%

SMILES: O=C(NC(COCc1cn(CCCCCCN2CCCC2)nn1)(COCc1cn(CCCCCCN2CCCC2)nn1)COCc1cn(CCCCCCN2CCCC2)nn1)c1cc(C(=O)NC(COCc2cn(CCCCCCN3CCCC3)nn2)(COCc2cn(CCCCCCN3CCCC3)nn2)COCc2cn(CCCCCCN3CCCC3)nn2)cc(C(=O)NC(COCc2cn(CCCCCCN3CCCC3)nn2)(COCc2cn(CCCCCCN3CCCC3)nn2)COCc2cn(CCCCCCN3CCCC3)nn2)c1 [Compound 38]
IC50 ([2]; human leukocyte extracts): 0.07 ± 0.015 mM

SMILES: CC(=O)OCC1OC(OCCCCCCn2cc(CO)nn2)C(OC(C)=O)C(OC(C)=O)C1OC(C)=O (centres unmarked) [Compound 48]
IC50 ([2]; human leukocyte extracts, cell prints mM under a µM head): > 1 mM
inhibition at 1000 µM [2, 5]: 16%

SMILES: CCCCCCCCN1C[C@@H](O)C(O)[C@H](O)C1 [Compound 55]
% Inhibition (1 mM) ([2]; 1 mM inhibitor, human leukocyte extracts, pH 4.3, 37 °C, 17 h): 33%

SMILES: CC(C)C[C@H]1C(=O)N2CCC[C@H]2[C@]2(O)O[C@](NC(=O)[C@@H]3C=C4c5cccc6[nH]c(Br)c(c56)C[C@H]4N(C)C3)(C(C)C)C(=O)N12 [bromocriptine]
effect on activity and thermostability of rhGALNS (rhGALNS): increase the activity and thermostability of rhGALNS

SMILES: O=C1[C@H](CC[C@H](O)c2ccc(F)cc2)[C@@H](c2ccc(O)cc2)N1c1ccc(F)cc1 [ezetimibe]
effect on activity and thermostability of rhGALNS (rhGALNS): increase the activity and thermostability of rhGALNS

SMILES: O=C(Nc1cccc2c(=O)cc(-c3nnn[nH]3)oc12)c1ccc(OCCCCc2ccccc2)cc1 [pranlukast]
effect on activity and thermostability of rhGALNS (rhGALNS): increase the activity and thermostability of rhGALNS

More lines, now with the values ahead:

inhibition at 1000 µM [2, 5]: < 75%
SMILES: NC(COCc1cn(CCCCCCN2C[C@@H](O)[C@H](O)[C@H]2CO)nn1)(COCc1cn(CCCCCCN2C[C@@H](O)[C@H](O)[C@H]2CO)nn1)COCc1cn(CCCCCCN2C[C@@H](O)[C@H](O)[C@H]2CO)nn1 [Compound 26]

inhibition at 1000 µM [2, 5]: < 75%
SMILES: OC[C@@H]1[C@@H](O)[C@H](O)CN1CCCCCCn1cc(COCC(COCc2cn(CCCCCCN3C[C@@H](O)[C@H](O)[C@H]3CO)nn2)OCc2cn(CCCCCCN3C[C@@H](O)[C@H](O)[C@H]3CO)nn2)nn1 [Compound 28]

inhibition at 1000 µM [2, 5]: 35%
SMILES: OC[C@@H]1[C@@H](O)[C@H](O)CN1CCCCCCn1cc(COCC(COCc2cn(CCCCCCN3C[C@@H](O)[C@H](O)[C@H]3CO)nn2)(COCc2cn(CCCCCCN3C[C@@H](O)[C@H](O)[C@H]3CO)nn2)COCc2cn(CCCCCCN3C[C@@H](O)[C@H](O)[C@H]3CO)nn2)nn1 [Compound 30]

inhibition at 1000 µM [2, 5]: 73%
SMILES: OCC1C(O)C(O)CN1CCCCCCn1cc(COCC(COCc2cn(CCCCCCN3CC(O)C(O)C3CO)nn2)(COCc2cn(CCCCCCN3CC(O)C(O)C3CO)nn2)COCc2cn(CCCCCCN3CC(O)C(O)C3CO)nn2)nn1 (centres unmarked) [Compound 31]

rp/n (multivalent effect) [2, 4]: 2.4
SMILES: O=C(CCCCC(=O)NC(COCc1cn(CCCCCCN2CC(O)C(O)C2CO)nn1)(COCc1cn(CCCCCCN2CC(O)C(O)C2CO)nn1)COCc1cn(CCCCCCN2CC(O)C(O)C2CO)nn1)NC(COCc1cn(CCCCCCN2CC(O)C(O)C2CO)nn1)(COCc1cn(CCCCCCN2CC(O)C(O)C2CO)nn1)COCc1cn(CCCCCCN2CC(O)C(O)C2CO)nn1 (centres unmarked) [Compound 33]

inhibition at 1000 µM [2, 5]: 49%
SMILES: O=C(NC(COCc1cn(CCN2C[C@@H](O)[C@H](O)[C@H]2CO)nn1)(COCc1cn(CCN2C[C@@H](O)[C@H](O)[C@H]2CO)nn1)COCc1cn(CCN2C[C@@H](O)[C@H](O)[C@H]2CO)nn1)c1ccc([N+](=O)[O-])cc1 [Compound 51]

inhibition at 1000 µM [2, 5]: 9%
SMILES: OCC1C(O)C(O)C2CC(n3cc(COCC(COCc4cn(C5CC6C(O)C(O)C(CO)N6C5)nn4)(COCc4cn(C5CC6C(O)C(O)C(CO)N6C5)nn4)COCc4cn(C5CC6C(O)C(O)C(CO)N6C5)nn4)nn3)CN12 (centres unmarked) [Compound 54]
